Inhibition data for 35 compounds are collected here from ChEMBL document CHEMBL1148617, “Design, synthesis, and structure-activity relationships of 1-,3-,8-, and 9-substituted-9-deazaxanthines at the human A2B adenosine receptor” (J Med Chem, 2006).

The target of assay [1] is T1, Adenosine receptor A2b (Homo sapiens) (UniProt P29275).
T1 sequence (whole entry): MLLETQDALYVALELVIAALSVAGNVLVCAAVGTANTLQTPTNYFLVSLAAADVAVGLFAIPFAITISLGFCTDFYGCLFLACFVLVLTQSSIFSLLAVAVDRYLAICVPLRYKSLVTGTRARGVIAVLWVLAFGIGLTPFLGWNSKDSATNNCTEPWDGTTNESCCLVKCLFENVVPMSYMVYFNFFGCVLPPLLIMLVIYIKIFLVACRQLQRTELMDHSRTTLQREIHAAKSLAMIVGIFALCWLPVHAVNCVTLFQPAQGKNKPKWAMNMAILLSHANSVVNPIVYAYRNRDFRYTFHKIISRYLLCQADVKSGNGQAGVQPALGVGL
The assay can be described thus: Displacement of [3H]DPCPX from recombinant human adenosine A2B receptor expressed in HEK293 cells at 0.1 uM. It is filed as cell-based.

Assay [2] has as its target T1, Adenosine receptor A2b (Homo sapiens). The assay can be described thus: Displacement of [3H]DPCPX from recombinant human adenosine A2B receptor expressed in HEK293 cells at 0.01 uM.
Another assay concerns the target Adenosine receptor A2a (Homo sapiens, UniProt P29274). The assay can be described thus: Displacement of [3H]ZM-241385 from recombinant human adenosine A2A receptor expressed in HeLa cells at 0.1 uM.

Adenosine receptor A2a, sequence (P29274 whole entry): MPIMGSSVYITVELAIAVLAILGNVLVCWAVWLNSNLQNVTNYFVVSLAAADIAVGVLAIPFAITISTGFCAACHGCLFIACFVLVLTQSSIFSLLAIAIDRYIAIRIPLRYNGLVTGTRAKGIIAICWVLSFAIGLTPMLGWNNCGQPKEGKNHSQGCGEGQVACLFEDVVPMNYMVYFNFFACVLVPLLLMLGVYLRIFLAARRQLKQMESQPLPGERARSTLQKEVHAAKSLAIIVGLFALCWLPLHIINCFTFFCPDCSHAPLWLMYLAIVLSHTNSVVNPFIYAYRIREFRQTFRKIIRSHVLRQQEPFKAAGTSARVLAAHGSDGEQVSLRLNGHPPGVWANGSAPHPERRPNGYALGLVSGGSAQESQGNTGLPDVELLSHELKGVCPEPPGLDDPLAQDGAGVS

On to `CCCn1c(=O)c2[nH]c(-c3ccc(OCC(=O)Nc4cc(C)cc(C)n4)cc3)cc2n(CCC)c1=O`, for which the inhibition is 53% in assay [1], 12% in assay [2] and 27% at Adenosine receptor A2a.
On to `CCCn1c(=O)c2[nH]c(-c3ccc(OCC(=O)Nc4ccc(C)cn4)cc3)cc2n(C)c1=O`, for which the inhibition was determined as 73% in assay [1], 24% in assay [2] and 12% on Adenosine receptor A2a.
For the compound `Cn1c(=O)c2[nH]c(-c3cccc(OCC(=O)O)c3)cc2n(C)c1=O`, the inhibition in assay [1] was found to be 23%; on Adenosine receptor A2a, 15%.
Take `O=C(COc1ccc(-c2cc3c([nH]2)c(=O)n(CC(F)(F)F)c(=O)n3CC(F)(F)F)cc1)Nc1ccc(F)cc1`: the inhibition in assay [1] is 68%; in assay [2] it was 22%; at Adenosine receptor A2a it was 18%.
As to `CN(C(=O)COc1ccc(-c2cc3c([nH]2)c(=O)n(C)c(=O)n3C)cc1)c1ccccc1`, the values for the inhibition (in assay [1]; in assay [2]; on Adenosine receptor A2a) were 61%, 15% and 0%, respectively.
For `Cn1c(=O)c2[nH]c(-c3ccc(OCC(=O)N[C@H]4C(O)O[C@H](CO)[C@@H](O)[C@@H]4O)cc3)cc2n(C)c1=O` (stereo partly drawn), in that order: 33%, 7% and 13%.
As for `CCCn1c(=O)c2[nH]c(-c3ccc(OCC(=O)N[C@H](C)[C@H](O)c4ccccc4)cc3)cc2n(CCC)c1=O`, the figures for the inhibition (in assay [1]; in assay [2]; at Adenosine receptor A2a) were 70%, 14% and 18%, respectively.
Turning to `COCCCn1c(=O)c2[nH]c(-c3ccc(OCC(=O)Nc4ccccc4)cc3)cc2n(CCCOC)c1=O`, the inhibition worked out at 65% in assay [1], 1% in assay [2] and 28% on Adenosine receptor A2a.
Take `Cn1c(=O)c2[nH]c(-c3ccc(OCC(=O)Nc4ccc(F)cc4)cc3)cc2n(CCN2CCOCC2)c1=O`: the inhibition came out at 27% in assay [1], 16% in assay [2] and 10% on Adenosine receptor A2a.
Take `O=C(O)COc1ccc(-c2cc3c([nH]2)c(=O)n(CC(F)(F)F)c(=O)n3CC(F)(F)F)cc1`: the figures for the inhibition (in assay [1]; in assay [2]; on Adenosine receptor A2a) were 22%, 16% and 19%, respectively.
Consider `CCCn1c(=O)c2[nH]c(-c3ccc(OCC(=O)Nc4cc(F)ccc4O)cc3)cc2n(CCC)c1=O`, for which the inhibition in assay [1] amounted to 89%; in assay [2], 29%; at Adenosine receptor A2a it was 73%.
As to `CCCn1c(=O)c2[nH]c(-c3ccc(OC(C)(C)C(=O)Nc4ccc(Br)cc4)cc3)cc2n(CCC)c1=O`, the inhibition is 87% in assay [1], 49% in assay [2] and 54% on Adenosine receptor A2a.
As for `CCCn1c(=O)c2[nH]c(-c3ccc(OCC(=O)Nc4ccc(Br)cc4)cc3OC)cc2n(CCC)c1=O`, the inhibition in assay [1] is 64%; in assay [2] it was 18%; at Adenosine receptor A2a, 39%.
Consider `CCCn1c(=O)n(C)c(=O)c2[nH]c(-c3ccc(OCC(=O)Nc4ccc(Br)cc4)cc3)cc21`, for which the inhibition amounted to 84% in assay [1] and 91% at Adenosine receptor A2a.
With `O=C(COc1ccc(-c2cc3c([nH]2)c(=O)n(CC(F)(F)F)c(=O)n3CC(F)(F)F)cc1)Nc1ccccc1`, the inhibition in assay [1] is 57%; in assay [2], 15%; on Adenosine receptor A2a it was 4%.
On to `Cn1c(=O)c2[nH]c(-c3ccc(OC(C)(C)C(=O)O)cc3)cc2n(C)c1=O`, for which the inhibition in assay [1] amounted to 14%; in assay [2], 3%; at Adenosine receptor A2a it was 2%.
Regarding `CCOC(=O)c1ccc(NC(=O)COc2ccc(-c3cc4c([nH]3)c(=O)n(C)c(=O)n4C)cc2OC)cc1`, the inhibition in assay [1] worked out at 47%; in assay [2], 10%; on Adenosine receptor A2a, 0%.
In the case of `CCCn1c(=O)c2[nH]c(-c3ccc(OC(C(=O)O)c4ccccc4)cc3)cc2n(CCC)c1=O` (stereo not drawn), the inhibition in assay [1] came to 47%; in assay [2], 10%; at Adenosine receptor A2a, 5%.
The corresponding values for `CCCn1c(=O)c2[nH]c(-c3ccc(OCC(=O)Nc4ncccc4O)cc3)cc2n(C)c1=O` are 71%, 31% and 22%.
In the case of `O=C(COc1ccc(-c2cc3c([nH]2)c(=O)n(CC2CC2)c(=O)n3CC2CC2)cc1)Nc1ccc(F)cc1`, the inhibition stood at 95% in assay [1], 57% in assay [2] and 98% at Adenosine receptor A2a.
For the compound `COc1cc(NC(=O)COc2ccc(-c3cc4c([nH]3)c(=O)n(C)c(=O)n4C)cc2)nc(OC)n1`, the inhibition was found to be 50% in assay [1], 12% in assay [2] and 14% at Adenosine receptor A2a.
In the case of `Cn1c(=O)c2[nH]c(-c3ccc(OCC(=O)O)cc3)cc2n(CCN2CCOCC2)c1=O`, the inhibition in assay [1] is 18%; at Adenosine receptor A2a, 11%.
Take `O=C(COc1ccc(-c2cc3c([nH]2)c(=O)n(CC2CC2)c(=O)n3CC2CC2)cc1)Nc1ccc(Br)cc1`: the inhibition came out at 94% in assay [1], 43% in assay [2] and 89% on Adenosine receptor A2a.
In the case of `CCCn1c(=O)c2[nH]c(-c3ccc(N(C=O)CC(=O)Nc4ccc(F)cc4)cc3)cc2n(CCC)c1=O`, the inhibition is 93% in assay [1], 24% in assay [2] and 89% on Adenosine receptor A2a.
For the compound `CCCn1c(=O)c2[nH]c(-c3ccc(N(C=O)CC(=O)O)cc3)cc2n(CCC)c1=O`, the inhibition in assay [1] was 40%; in assay [2] it was 9%; on Adenosine receptor A2a, 9%.
With `Cn1c(=O)c2[nH]c(-c3ccc(OCC(=O)O)cc3)c(Br)c2n(C)c1=O`, the figures for the inhibition (in assay [1]; on Adenosine receptor A2a) were 24% and 4%, respectively.
Regarding `CCCn1c(=O)c2[nH]c(-c3ccc(OCC(=O)Nc4ccc(C(F)(F)F)cc4)cc3)cc2n(CCC)c1=O`, the results for the inhibition (in assay [1]; in assay [2]; on Adenosine receptor A2a) were 85%, 14% and 19%, respectively.
Consider `CCCn1c(=O)c2[nH]c(-c3ccc(OC(C)(C)C(=O)O)cc3)cc2n(CCC)c1=O`, for which the values for the inhibition (in assay [1]; in assay [2]; at Adenosine receptor A2a) were 26%, 12% and 6%, respectively.
For `CC(C)Cn1c(=O)c2[nH]c(-c3ccc(OCC(=O)O)cc3)cc2n(C)c1=O`, the inhibition in assay [1] was 28%; on Adenosine receptor A2a it was 1%.
In the case of `CCCn1c(=O)n(C)c(=O)c2[nH]c(-c3ccc(OCC(=O)NCc4ccccc4)cc3)cc21`, the values for the inhibition (in assay [1]; in assay [2]; on Adenosine receptor A2a) were 21%, 10% and 19%, respectively.
Consider `CCCn1c(=O)c2[nH]c(-c3ccc(OCC(=O)Nc4cnccn4)cc3)cc2n(CCC)c1=O`, for which the inhibition stood at 68% in assay [1], 10% in assay [2] and 34% on Adenosine receptor A2a.
Take `COCCCn1c(=O)c2[nH]c(-c3ccc(OCC(=O)Nc4ccc(Br)cc4)cc3)cc2n(CCCOC)c1=O`: the inhibition in assay [1] came out at 85%; in assay [2] it was 45%; on Adenosine receptor A2a, 30%.
Take `CCCn1c(=O)c2[nH]c(-c3ccc(OCC(=O)Nc4ccccc4)cc3OC)cc2n(CCC)c1=O`: the inhibition is 17% in assay [1], 3% in assay [2] and 35% at Adenosine receptor A2a.
As to `CCCn1c(=O)c2[nH]c(-c3ccc(OCC(=O)OCC)cc3OC)cc2n(CCC)c1=O`, the inhibition is 1% in assay [1] and 10% on Adenosine receptor A2a.
The corresponding values for `CCCn1c(=O)c2[nH]c(-c3ccc(OCC(=O)O)cc3OC)cc2n(CCC)c1=O` are 8% and 10%.
